In patent US20140065632A1, “MARKER GENE FOR DETECTION OF TUMOR PROMOTER, AND METHOD FOR DETECTION OF TUMOR PROMOTER” (priority 2007, published 2014):
Read-outs that look alike come from different tables or passages of the source.

Key:
BALB/c 3T3 cells = test system: BALB/c 3T3 cells; parameters: focus formation ability (intensity of the tumor-promoting activity): key to the marks not given beside the values
Orm1 = assay: Quantitative RT-PCR of Orm1 gene expression in the BALB/c 3T3 cell transformation assay; type: cell-based, mouse
[1] = Example 3, MCA-initiated BALB/c 3T3 cells, RNA 48 hours after addition of test substance, normalized by β-actin

| Compound | Focus formation in the BALB/c 3T3 cell transformation assay (BALB/c 3T3 cells) | ability to form foci in the BALB/c 3T3 cell transformation assay (BALB/c 3T3 cells) | Expression level of Orm1 (rates relative to the negative control) (Orm1; [1]) | ability to form foci in the Bhas cellular transformation assay (Bhas cells) | focus formation ability (intensity of the tumor-promoting activity) (BALB/c 3T3 cells) | Expression level of Orm1 (rates relative to the negative control) (Orm1) | focus formation in the BALB/c 3T3 cell transformation assay (BALB/c 3T3 cells) |
| --- | --- | --- | --- | --- | --- | --- | --- |
| CC(C)[C@@H]1CC[C@@H](C)C[C@H]1O (racemic) [dl-menthol, DL-menthol] | − | unable to form foci | 0.9 |  |  |  |  |
| O=[N+]([O-])c1cccc2ccccc12 [1-nitronaphthalene] | − | unable to form foci |  |  |  |  |  |
| c1ccc2cc3c(ccc4ccccc43)cc2c1 [Benz[a]anthracen, benz[a]anthracene] | − | unable to form foci |  |  |  |  |  |
| c1ccc2c(c1)ccc1c3ccccc3ccc21 [Chrysene, chrysene] | − | unable to form foci |  | able to form foci |  |  |  |
| OC[C@@H](O)[C@@H](O)[C@H](O)[C@H](O)CO [D-mannitol] | − | unable to form foci |  |  |  |  |  |
| C[C@H](CCC(=O)O)[C@H]1CC[C@H]2[C@@H]3CC[C@@H]4C[C@H](O)CC[C@]4(C)[C@H]3CC[C@]12C [Lithocholic acid, lithocholic acid] | + | able to form foci |  | able to form foci |  |  |  |
| C=C(C)[C@@]12O[C@@]3(c4ccccc4)O[C@@H]1[C@@H]1[C@@H]4O[C@]4(CO)[C@@H](O)[C@]4(O)C(=O)C(C)=C[C@H]4[C@@]1(O3)[C@H](C)[C@H]2OC(=O)/C=C/C=C/c1ccccc1 [Mezerein, mezerein] | + | able to form foci |  | able to form foci | +++ | 2.6 |  |
| C=C1[C@@H](O)[C@@H]2O[C@]3(CC[C@H](/C=C/[C@@H](C)[C@@H]4CC(C)=C[C@@]5(O[C@H](C[C@@](C)(O)C(=O)O)CC[C@H]5O)O4)O3)CC[C@H]2O[C@@H]1[C@@H](O)C[C@H](C)[C@H]1O[C@@]2(CCCCO2)CC[C@H]1C [Okadaic acid, okadaic acid] | + | able to form foci |  |  | +++ |  |  |
| c1cc2cccc3c4cccc5cccc(c(c1)c23)c54 [Perylene, perylene] | − | unable to form foci |  | able to form foci |  |  |  |
| CCC1(c2ccccc2)C(=O)NC(=O)NC1=O [Phenobarbital sodium, phenobarbital sodium] | + | able to form foci |  |  | ++ |  |  |
| O=C1NS(=O)(=O)c2ccccc21.[Na] [Saccharin sodium, saccharin sodium] | + | able to form foci |  |  | ++ |  |  |
| O=[As]O [Sodium arsenite, sodium arsenite] | + | able to form foci |  |  | ++ |  |  |
| O=C1O[C@H]([C@@H](O)CO)C([O-])=C1O.[Na+] [Sodium ascorbate, sodium ascorbate] | − | unable to form foci |  |  |  |  |  |
| [Na+].[Na+].[Na+].[O]=[V]([O-])([O-])[O-] [Sodium orthovanadate, sodium orthovanadate] | + | able to form foci |  |  | +++ | 1.5 |  |
| CC(C)(C)c1cc(O)ccc1O [TBHQ, tert-butylhydroquinone] | − | unable to form foci |  | able to form foci |  |  |  |
| CCCCCCCCCCCCCC(=O)O[C@@H]1[C@@H](C)[C@@]2(O)[C@@H](C=C(CO)C[C@]3(O)C(=O)C(C)=C[C@@H]23)[C@@H]2C(C)(C)[C@]12OC(C)=O [TPA, phorbol 12-myristate 13-acetate] | + | able to form foci |  | able to form foci | +++ | 2.3 | Significant focus formation was observed |
| [Cl-].[Cl-].[Zn+2] [Zinc chloride, zinc chloride] | + | able to form foci |  | able to form foci | +++ | 3.4 | Significant focus formation was observed |
| COc1ccc(O)c(C(C)(C)C)c1 [butylhydroxyanisol] |  |  |  |  | ++ |  |  |
| insulin | + | able to form foci | 2.0 | able to form foci | ++ |  |  |
